Assay results published in US10081641B2, “Pesticidally active heterocyclic derivatives with sulphur containing substituents” (Syngenta Participations AG, priority 2014, dated 2018).
Read-outs that look alike come from different tables or passages of the source.

Tests used:
Format in all cases: in vivo
[1] = tested on: Plutella xylostella (Diamond Back Moth); assay: Example B3: Plutella xylostella, artificial diet; conditions: 120 h, read-out: effect in at least one of the two categories (mortality or growth inhibition)
Method: Example B3: Plutella xylostella (Diamond Back Moth)
24-well microtiter plates with artificial diet were treated with aqueous test solutions prepared from 10′000 ppm DMSO stock solutions by pipetting. After drying, the plates were infested with L2 larvae (10 to 15 per well). The samples were assessed for mortality and growth inhibition in comparison to untreated samples 5 days after infestation.

[2] = tested on: Spodoptera littoralis (Egyptian Cotton Leaf Worm); assay: Example B1: Spodoptera littoralis, sprayed cotton leaf discs; conditions: foliar, 72 h, read-out: control (at least one of mortality, anti-feedant effect, growth inhibition)
Method: Example B1: Spodoptera littoralis (Egyptian Cotton Leaf Worm)
Cotton leaf discs were placed on agar in 24-well microtiter plates and sprayed with aqueous test solutions prepared from 10′000 ppm DMSO stock solutions. After drying, the leaf discs were infested with five L1 larvae. The samples were assessed for mortality, anti-feedant effect, and growth inhibition in comparison to untreated samples 3 days after infestation. Control of Spodoptera littoralis by a test sample is when at least one of mortality, anti-feedant effect, and growth inhibition is higher than the untreated sample.

[3] = tested on: Myzus persicae (Green Peach Aphid); assay: Example B6: Myzus persicae, roots of pea seedlings in test solution; conditions: 144 h, test rate of 24 ppm, pea seedling roots in test solution, 6 days
Method: Example B6: Myzus persicae (Green Peach Aphid)
Roots of pea seedlings infested with an aphid population of mixed ages were placed directly in the aqueous test solutions prepared from 10′000 DMSO stock solutions. The samples were assessed for mortality 6 days after placing seedlings in test solutions.

[4] = tested on: Myzus persicae (Green Peach Aphid); assay: Example B5: Myzus persicae, sprayed sunflower leaf discs; conditions: foliar, 144 h, application rate of 200 ppm, mixed ages, 6 days after infestation
Method: Example B5: Myzus persicae (Green Peach Aphid)
Sunflower leaf discs were placed on agar in a 24-well microtiter plate and sprayed with aqueous test solutions prepared from 10′000 ppm DMSO stock solutions. After drying, the leaf discs were infested with an aphid population of mixed ages. The samples were assessed for mortality 6 days after infestation.

[5] = tested on: Diabrotica Balteata (Corn Root Worm); assay: Example B4: Diabrotica balteata, sprayed maize sprouts; conditions: 96 h, application rate of 200 ppm, L2 larvae, 4 days after infestation, read-out: effect in at least one of the two categories (mortality or growth inhibition)
Method: Example B4: Diabrotica Balteata (Corn Root Worm)
Maize sprouts, placed on an agar layer in 24-well microtiter plates were treated with aqueous test solutions prepared from 10′000 ppm DMSO stock solutions by spraying. After drying, the plates were infested with L2 larvae (6 to 10 per well). The samples were assessed for mortality and growth inhibition in comparison to untreated samples 4 days after infestation.

[6] = tested on: Bemisia tabaci (Cotton White Fly); assay: Example B7: Bemisia tabaci, sprayed cotton leaf discs; conditions: foliar, 144 h, application rate of 200 ppm, adult white flies, 6 days after incubation
Method: Example B7: Bemisia tabaci (Cotton White Fly)
Cotton leaf discs were placed on agar in 24-well microtiter plates and sprayed with aqueous test solutions prepared from 10′000 ppm DMSO stock solutions. After drying the leaf discs were infested with adult white flies. The samples were checked for mortality 6 days after incubation.

[7] = tested on: Euschistus heros (Neotropical Brown Stink Bug); assay: Example B8: Euschistus heros, sprayed soybean leaf; conditions: 120 h, application rate of 200 ppm, N-2 nymphs, 5 days after infestation
Method: Example B8: Euschistus heros (Neotropical Brown Stink Bug)
Soybean leaf on agar in 24-well microtiter plates were sprayed with aqueous test solutions prepared from 10′000 ppm DMSO stock solutions. After drying the leaf were infested with N-2 nymphs. The samples were assessed for mortality 5 days after infestation.

[8] = tested on: Spodoptera littoralis (Egyptian Cotton Leaf Worm); assay: Example B2: Spodoptera littoralis, systemic test via lettuce roots in agar; conditions: 144 h, test rate of 12.5 ppm, uptake via lettuce roots, 6 days after infestation, read-out: effect in at least one of the three categories (mortality, anti-feedancy, or growth inhibition)
From the text: Example B2: Spodoptera littoralis (Egyptian Cotton Leaf Worm)
Test compounds were applied by pipette from 10′000 ppm DMSO stock solutions into 24-well plates and mixed with agar. Lettuce seeds were placed on the agar and the multi well plate was closed by another plate which contains also agar. After 7 days the roots have absorbed the compound and the lettuce has grown into the lid plate. The lettuce leafs were now cut off into the lid plate. Spodoptera eggs were pipetted through a plastic stencil on a humid gel blotting paper and the plate closed with it. The samples were assessed for mortality, anti-feedant effect and growth inhibition in comparison to untreated samples 6 days after infestation.

[9] = tested on: Tetranychus urticae (Two-Spotted Spider Mite); assay: Example B10: Tetranychus urticae, sprayed bean leaf discs; conditions: foliar, 192 h
Method: Example B10: Tetranychus urticae (Two-Spotted Spider Mite)
Bean leaf discs on agar in 24-well microtiter plates were sprayed with aqueous test solutions prepared from 10′000 ppm DMSO stock solutions. After drying the leaf discs were infested with a mite population of mixed ages. The samples were assessed for mortality on mixed population (mobile stages) 8 days after infestation.

[10] = tested on: Frankliniella occidentalis (Western Flower Thrips); assay: Example B12: Frankliniella occidentalis, sprayed sunflower leaf discs; conditions: foliar, 168 h, application rate of 200 ppm, mixed ages, 7 days after infestation
Method: Example B12: Frankliniella occidentalis (Western Flower Thrips)
Sunflower leaf discs were placed on agar in 24-well microtiter plates and sprayed with aqueous test solutions prepared from […] stock solutions. After drying the leaf discs were infested with a Frankliniella population of mixed ages. The samples were assessed for mortality 7 days after infestation.

[11] = application rate of 200 ppm, artificial diet, L2 larvae, 5 days after infestation
[12] = application rate of 200 ppm, cotton leaf discs, L1 larvae, 3 days after infestation

CCS(=O)(=O)c1cc(C#C[Si](C)(C)C)cnc1-c1nc2cc(C(F)(F)F)ncc2n1C [P1, 2-[5-ethylsulfonyl-6-[3-methyl-6-(trifluoromethyl)imidazo[4,5-c]pyridin-2-yl]-3-pyridyl]ethynyl-trimethyl-silane]
≥ 80%: percent effect (mortality or growth inhibition) at 200 ppm [1] | percent control (mortality, anti-feedant effect or growth inhibition) at 200 ppm [2]

C#Cc1cnc(-c2nc3cc(C(F)(F)F)ncc3n2C)c(S(=O)(=O)CC)c1 [P2, 2-(3-ethylsulfonyl-5-ethynyl-2-pyridyl)-3-methyl-6-(trifluoromethyl)imidazo[4,5-c]pyridine]
≥ 80%: percent effect (mortality or growth inhibition) at 200 ppm [1, 11] | percent control (mortality, anti-feedant effect or growth inhibition) at 200 ppm [2, 12]

C=Cc1cnc(-c2nc3cc(C(F)(F)F)ncc3n2C)c(S(=O)(=O)CC)c1 [P3, 2-(3-ethylsulfonyl-5-vinyl-2-pyridyl)-3-methyl-6-(trifluoromethyl)imidazo[4,5-c]pyridine]
≥ 80%: mortality at 24 ppm [3] | percent effect (mortality or growth inhibition) at 200 ppm [1, 11] | mortality at 200 ppm [4] | percent control (mortality, anti-feedant effect or growth inhibition) at 200 ppm [2, 12] | percent effect (mortality or growth inhibition) at 200 ppm [5]

CCS(=O)(=O)c1cc(C#Cc2ccc(Cl)cc2)cnc1-c1nc2cc(C(F)(F)F)ncc2n1C [P4]
≥ 80%: percent effect (mortality or growth inhibition) at 200 ppm [1, 11] | mortality at 200 ppm [4] | percent control (mortality, anti-feedant effect or growth inhibition) at 200 ppm [2, 12] | percent effect (mortality or growth inhibition) at 200 ppm [5]

CCS(=O)(=O)c1cc(/C=C/C2CCCCC2)cnc1-c1nc2cc(C(F)(F)F)ncc2n1C [P5]
≥ 80%: percent effect (mortality or growth inhibition) at 200 ppm [1, 11] | percent effect (mortality or growth inhibition) at 200 ppm [5] | mortality at 200 ppm [6]

C/C=C/c1cnc(-c2nc3cc(C(F)(F)F)ncc3n2C)c(S(=O)(=O)CC)c1 [P6]
≥ 80%: percent effect (mortality or growth inhibition) at 200 ppm [1, 11] | mortality at 200 ppm [4] | percent control (mortality, anti-feedant effect or growth inhibition) at 200 ppm [2, 12] | percent effect (mortality or growth inhibition) at 200 ppm [5] | mortality at 200 ppm [7] | percent control (mortality, anti-feedancy or growth inhibition) at 12.5 ppm [8]

CCS(=O)(=O)c1cc(C2CC2)cnc1-c1nc2cc(C(F)(F)F)ncc2n1C [P7, 2-(5-cyclopropyl-3-ethylsulfonyl-2-pyridyl)-3-methyl-6-(trifluoromethyl)imidazo[4,5-c]pyridine]
≥ 80%: mortality at 24 ppm [3] | percent effect (mortality or growth inhibition) at 200 ppm [1, 11] | mortality at 200 ppm [4] | percent control (mortality, anti-feedant effect or growth inhibition) at 200 ppm [2, 12] | percent effect (mortality or growth inhibition) at 200 ppm [5] | mortality at 200 ppm [7] | percent control (mortality, anti-feedancy or growth inhibition) at 12.5 ppm [8]

CCS(=O)(=O)c1cc(C#Cc2ccc(Cl)cc2)ccc1-c1nc2cc(C(F)(F)F)ncc2n1C [P8]
≥ 80%: percent effect (mortality or growth inhibition) at 200 ppm [1, 11] | percent control (mortality, anti-feedant effect or growth inhibition) at 200 ppm [2, 12] | percent effect (mortality or growth inhibition) at 200 ppm [5] | mortality at 200 ppm [7] | mortality at 200 ppm [6] | percent control (mortality, anti-feedancy or growth inhibition) at 12.5 ppm [8]

CCS(=O)(=O)c1cc(C#CC(F)(F)F)ccc1-c1nc2cc(C(F)(F)F)ncc2n1C [P9]
≥ 80%: percent effect (mortality or growth inhibition) at 200 ppm [5] | mortality at 200 ppm [9]

CCS(=O)(=O)c1cc(/C=C/c2ccc(C(F)(F)F)cc2)ccc1-c1nc2cc(C(F)(F)F)ncc2n1C [P10]
≥ 80%: percent effect (mortality or growth inhibition) at 200 ppm [1, 11] | percent control (mortality, anti-feedant effect or growth inhibition) at 200 ppm [2, 12] | percent effect (mortality or growth inhibition) at 200 ppm [5] | mortality at 200 ppm [7]

CCS(=O)(=O)c1cc(C=C(C)C)cnc1-c1nc2cc(C(F)(F)F)ncc2n1C [P11]
≥ 80%: percent effect (mortality or growth inhibition) at 200 ppm [1, 11] | mortality at 200 ppm [4] | percent control (mortality, anti-feedant effect or growth inhibition) at 200 ppm [2, 12] | percent effect (mortality or growth inhibition) at 200 ppm [5] | mortality at 200 ppm [7]

CCS(=O)(=O)c1cc(C2=CCC(C)(C)CC2)cnc1-c1nc2cc(C(F)(F)F)ncc2n1C [P12]
≥ 80%: percent effect (mortality or growth inhibition) at 200 ppm [1, 11] | mortality at 200 ppm [4] | mortality at 200 ppm [7] | mortality at 200 ppm [6]

C=Cc1ccc(-c2nc3cc(C(F)(F)F)ncc3n2C)c(S(=O)(=O)CC)c1 [P13]
≥ 80%: percent effect (mortality or growth inhibition) at 200 ppm [1, 11] | percent control (mortality, anti-feedant effect or growth inhibition) at 200 ppm [2, 12] | percent effect (mortality or growth inhibition) at 200 ppm [5] | percent control (mortality, anti-feedancy or growth inhibition) at 12.5 ppm [8]

C=C(c1ccc(-c2nc3cc(C(F)(F)F)ncc3n2C)c(S(=O)(=O)CC)c1)C(F)(F)F [P14]
≥ 80%: percent effect (mortality or growth inhibition) at 200 ppm [1, 11] | percent control (mortality, anti-feedant effect or growth inhibition) at 200 ppm [2, 12] | percent effect (mortality or growth inhibition) at 200 ppm [5]

CCS(=O)(=O)c1cc(C2(C#N)CC2)ccc1-c1nc2cc(C(F)(F)F)ncc2n1C [P15, 1-[3-ethylsulfonyl-4-[3-methyl-6-(trifluoromethyl)imidazo[4,5-c]pyridin-2-yl]phenyl]cyclopropanecarbonitrile]
≥ 80%: mortality at 24 ppm [3] | percent effect (mortality or growth inhibition) at 200 ppm [1, 11] | mortality at 200 ppm [4] | percent control (mortality, anti-feedant effect or growth inhibition) at 200 ppm [2, 12] | percent effect (mortality or growth inhibition) at 200 ppm [5] | mortality at 200 ppm [7] | mortality at 200 ppm [6] | mortality at 200 ppm [9] | mortality at 200 ppm [10] | percent control (mortality, anti-feedancy or growth inhibition) at 12.5 ppm [8]

C=C(c1cnc(-c2nc3cc(C(F)(F)F)ncc3n2C)c(S(=O)(=O)CC)c1)C(F)(F)F [P17, 2-[3-ethylsulfonyl-5-[1-(trifluoromethyl)vinyl]-2-pyridyl]-3-methyl-6-(trifluoromethyl)imidazo[4,5-c]pyridine]
≥ 80%: percent effect (mortality or growth inhibition) at 200 ppm [5]
